# Laboratory results as given in US8227210B2, “Positive control proteins for glucose transporter proteins and processes for the generation of such positive control proteins” (East Tennessee State University Research Foundation, priority 2008, dated 2012).
# Where “and” joins values, the source holds several entries; their conditions need not be identical. Identical values can stand only once. Entries after “also recorded” stand apart in the source; their conditions may differ.
# Columns and labels:
# [1] = tested on: SEQ ID NO. 12 (GLUT4) translocation in L6 myoblasts; assay: Insulin-stimulated translocation of GLUT4 to PM fraction in L6 myoblasts and its inhibition by PI3-K inhibitor; format: cell-based, rat; details: L6 cells, 10 ng/mL insulin
# Procedure: (§1) Fractionation of L6 muscle cells: L6 cells were obtained from ATCC and cultured in D.MEM medium with 10% fetal bovine serum with subculturing every three to five days. For the studies described below, cells were grown to near confluence in 100 mm dishes. Cells were harvested in 1 mL homogenization Buffer A containing 5 μL protease inhibitors using a rubber policeman. The remainder of the technique is the same as muscle microsamples. The yield of protein averaged 199±14 μg for PM and 419±22 μg for LDM. Immunoblot technique: Immunoblotting was performed essentially as previously described (11). In general, 10-20 μg protein from muscle homogenate or fractions was separated on a 10% polyacrylamide gel using the Laemmli system (12), transferred to a nitrocellulose membrane, subjected to blocking with 2.5% non-fat dry milk in phosphate-buffered saline, incubated with a validated dilution of one of the anti-GLUT antibodies above including 1.25% milk, and developed with the enhanced chemiluminescence reagent and X-ray film. Image analysis was performed on scanned film digital files using Quantity One version 4.5.2 software from Bio-Rad (Hercules, Calif.). The specificity of the antibodies employed for GLUT1 SEQ ID NO. […] After harvesting and fractionating the cells, samples from the fractions were subjected to immunoblotting and digital images were quantified by image analysis software. […]
# [2] = tested on: SEQ ID NO. 12 (GLUT4); details: cited from earlier work
# [3] = Euglycemic insulin clamp: plasma insulin concentration and glucose infusion rate
# Procedure: Euglycemic insulin clamp studies: Insulin infusion studies were performed essentially as previously described (8; 9) except no isotope or somatostatin were used in this study. Mter an overnight fast, subjects were maintained in quiet recumbency for two hours to minimize the effects of muscular activity on protein subcellular localization. After a baseline muscle biopsy, a constant insulin infusion was performed at 40 mU/m2/min for three hours. A second muscle biopsy was performed on the contralateral side in the last 10 minutes of the insulin infusion period.
# [4] = tested on: SEQ ID NO. 12 (GLUT4); assay: Euglycemic insulin clamp: GLUT4 in plasma membrane-enriched (PM) fraction of vastus lateralis biopsies, quantitative immunoblot; format: in vivo, human
# Procedure: (§2) Muscle biopsies: Percutaneous needle biopsies of vastus lateralis were performed using a 5 mm Bergstrom-Stille needle under suction after an overnight fast and two hours of quiet recumbency as previously described (6). A 50-100 mg specimen was quickly blotted and the entire sample was frozen in liquid nitrogen for later analysis.
# (§3) Fractionation of muscle microsamples: We have made minor modifications of our previously described techniques (10). Briefly, 50 mg muscle is removed from the −80° C. freezer and slowly thawed on ice. The muscle is homogenized in 1.0 ml Buffer A (250 mM sucrose, 20 mM HEPES, pH 7.4) with 5 μL protease cocktail (Cocktail Kit Pierce #78410) added. Initial homogenization is 30 seconds with a Pellet Pestle Motor (Kontes). The homogenate is passed through a BD Falcon 100 μm Cell Strainer and after adding 100 μL Buffer B (3M KCl, 250 roM sodium pyrophosphate), is spun at 227,000×g for 30 minutes. The pellet is resuspended in 1.0 mL of Buffer A with protease cocktail using the Pellet Pestle Motor again for 30 seconds. This sample is then spun at 12,000×g for 20 minutes. […]
# (§4) Immunoblot technique: Immunoblotting was performed essentially as previously described (11). […] Image analysis was performed on scanned film digital files using Quantity One version 4.5.2 software from Bio-Rad (Hercules, Calif.). […]
# [5] = tested on: SEQ ID NO. 10 (GLUT1); assay: Euglycemic insulin clamp: GLUT1 in plasma membrane-enriched (PM) fraction of vastus lateralis biopsies, immunoblot; format: in vivo, human
# Procedure: as §2, §3, §4
# [6] = tested on: SEQ ID NO. 16 (GLUT12); assay: Euglycemic insulin clamp: GLUT12 in plasma membrane-enriched (PM) fraction of vastus lateralis biopsies, quantitative immunoblot; format: in vivo, human
# Procedure: as §2
# Fractionation of muscle microsamples: We have made minor modifications of our previously described techniques (10). Briefly, 50 mg muscle is removed from the −80° C. freezer and slowly thawed on ice. The muscle is homogenized in 1.0 ml Buffer A (250 mM sucrose, 20 mM HEPES, pH 7.4) with 5 μL protease cocktail (Cocktail Kit Pierce #78410) added. Initial homogenization is 30 seconds with a Pellet Pestle Motor (Kontes). The homogenate is passed through a BD Falcon 100 μm Cell Strainer and after adding 100 μL Buffer B (3M KCl, 250 roM sodium pyrophosphate), is spun at 227,000×g for 30 minutes. The pellet is resuspended in 1.0 mL of Buffer A with protease cocktail using the Pellet Pestle Motor again for 30 seconds. This sample is then spun at 12,000×g for 20 minutes. The pellet is resuspended in 200 μl, Boston Bioproducts Triton Lysis Buffer with Protease Inhibitor (BP-117) using the Pellet Pestle Motor. This sample is designated PM, the plasma membrane-enriched fraction. The supernate is removed and spun at 227,000×g for 30 minutes. The resulting pellet is also resuspended in 200 μL Boston. Bioproducts Triton Lysis Buffer, and is designated LDM, the low density microsomes fraction. PM protein content averaged 139±7 μg and LDM contained 265±8 μg protein. In studies performed on human control muscle sample fractions, the PM fraction contained 80% of the immunological signal for the plasma membrane marker Na/K+ ATPase α-I (05-369 from Millipore). LDM contained 67% of the golgi marker mannosidase II (AB3712 from Chemicon).
# as §4
# [7] = tested on: SEQ ID NO. 16 (GLUT12) translocation in L6 myoblasts; assay: Insulin-stimulated translocation of GLUT12 to PM fraction in L6 myoblasts and its inhibition by PI3-K inhibitor; format: cell-based, rat; details: L6 cells, 10 ng/mL insulin
# Procedure: as §1
substance,measurement,setting,value
"insulin: insulin given as constant euglycemic infusion at 40 mU/m2/min, or 10 ng/mL on L6 cells",Translocation of GLUT4 to the PM fraction by insulin,[1],caused translocation; also recorded: moved from the fraction to the PM fraction
same,Increase in GLUT4 in the muscle plasma membrane fractions (Zierath),"[2]; after euglycemic insulin infusion, same infusion rate, literature ref 26",60%
same,Increase in sarcolemma-associated GLUT4 by confocal quantitative immunohistochemistry (Kelley),"[2]; control subjects, literature ref 24",85%
same,Increase in GLUT4 in muscle plasma membrane-enriched fractions (Garvey),"[2]; ten-fold higher insulin infusion, control subjects, literature ref 25",2.8 fold
same,Plasma insulin concentration,"[3]; infusion of insulin at 40 mU/m2/min, baseline 28±7 pmol/L",343 ± 21 pmol/L
same,Mean glucose infusion rate to maintain blood glucose of 85 mg/dL,[3]; steady state period of the insulin infusion,8.87 mg/kg·min
same,GLUT4 distribution in the plasma membrane-enriched (PM) fractions,"[4]; end of 3 h insulin infusion at 40 mU/m2/min, six normal volunteers, baseline 13%",42%
same,Change of GLUT4 content of the PM fraction in response to insulin infusion,"[4]; insulin infusion vs baseline, each subject",more than doubled; also recorded: at least doubled
same,Change of GLUT1 distribution/signal in LDM and PM fractions after insulin,[5]; insulin infusion vs baseline,did not change; also recorded: no change
same,GLUT1 content in the PM fractions,"[5]; post-insulin infusion, subjects 1-5, baseline 78±7%",79±9% and 79%
same,GLUT12 distribution in the plasma membrane-enriched (PM) fractions,"[6]; end of 3 h insulin infusion at 40 mU/m2/min, six normal volunteers, baseline 17%",38%
same,Change of GLUT12 content of the PM fraction in response to insulin infusion,[6]; insulin infusion vs baseline,more than doubled in four of the six subjects
same,Minimum increase of GLUT12 content of the PM fraction,"[6]; insulin infusion vs baseline, minimum response among six subjects",≥ 60%
same,Translocation of GLUT12 to the PM fraction by insulin,[7],translocated; also recorded: caused translocation; also recorded: moved from the fraction to the PM fraction
